Laboratory results: patent US8691864B2, “Agents useful for reducing amyloid precursor protein and treating dementia and methods of use thereof” (priority 2000, dated 2014)

Columns and labels:
[1] = tested on: secreted APP; test: ELISA for secreted APP in SHSY5Y cells; assay type: cell-based, human; conditions: 16 hours
Experimental: (§1) An enzyme-linked immunosorbent assay was developed to detect secreted APP in SHSY5Y cells, a human neuroblastoma cell line. The purpose of the screen was to discover small molecules that inhibit APP protein synthesis in SHSY5Y cells. SHSY5Y cells were plated at 1×10^5 cells/well in […] of DMEM containing 0.5% heat inactivated FBS in 96 well tissue culture treated plates (Falcon no. 35 3072). 144 MES compounds were tested at final concentrations of […] in 0.1% DMSO. Compounds were added and the plates incubated for 16 hours at 37° C./5% CO2. Maxisorp plates (Nunc no. 437958) were coated overnight with […] capture antibody (Biosource 44-100) diluted in Ca^++ and Mg^++ free PBS. Biosource 44-100 is a mouse mAb that recognizes aa 1-100 of human APP. Plates were blocked for 30 minutes with 1 mg/mL BSA in Ca^++ and Mg^++ free PBS. Plates were washed 3× with wash buffer (Ca^++ and Mg^++ free PBS+0.01% Tween20). […] of supernatants and non-cultured medium controls were transferred from culture plates to ELISA plates. Culture plates were reserved for toxicity analysis. Supernatants were incubated for 4 hours at RT on a plate shaker. After supernatant incubation, plates were washed 3×. Primary antibody (Signet Clone 6E-10 biotin) was added at 0.3125 mg/mL and incubated overnight at 4° C. The recognition site of 6E-10 is aa 1-17 of Ab. For detection, a 1:3000 dilution of horseradish peroxidase conjugated streptavidin (Endogen no. N-100) was incubated for 30 minutes. Plates were washed 3×. Enzyme activity was assessed by incubation with […] TMB substrate solution (Moss no. TMB-US) for 20 minutes. The reaction was stopped by the addition of […] 0.18M sulfuric acid. Optical density was read at 450 nm on Wallac Victor2 plate reader. During the first incubation, toxicity was determined using MTS assay, Cell Titer96 AQ reagent (Promega no. G5430). The background values from the non-cultured medium control were subtracted from the sample values and secreted APP levels and toxicity were expressed as % vehicle control. Of the 144 MES compounds screened, 12 inhibited secreted APP as determined by ELISA. The results are depicted in FIGS. 13A-M.
(§2) Using the experimental procedure outlined above, APP secretion and toxicity studies were performed on several other non-carbamate compounds, and the results are shown in Tables 3 and 4. The compound structures are provided in Table 2 in the application, which are identified by their MES number.

[2] = tested on: SH-SY-5Y Cells; test: MTS toxicity assay in SHSY5Y cells; assay type: cell-based, human
Experimental: as §1, §2

Row | SMILES | APP Secretion by SH-SY-5Y Cells ([1]; Dose 2 uM) | APP Secretion by SH-SY-5Y Cells ([1]; Dose 6 uM) | APP Secretion by SH-SY-5Y Cells ([1]; Dose 20 uM) | APP Toxicity SH-SY-5Y Cells (MTS assay) ([2]; Dose 2 uM) | APP Toxicity SH-SY-5Y Cells (MTS assay) ([2]; Dose 6 uM) | APP Toxicity SH-SY-5Y Cells (MTS assay) ([2]; Dose 20 uM) | APP Secretion by SH-SY-5Y Cells ([1]; Dose 0.08 uM) | APP Secretion by SH-SY-5Y Cells ([1]; Dose 0.25 uM) | APP Secretion by SH-SY-5Y Cells ([1]; Dose 0.74 uM) | APP Toxicity SH-SY-5Y Cells (MTS assay) ([2]; Dose 0.08 uM) | APP Toxicity SH-SY-5Y Cells (MTS assay) ([2]; Dose 0.25 uM) | APP Toxicity SH-SY-5Y Cells (MTS assay) ([2]; Dose 0.74 uM) | APP Secretion by SH-SY-5Y Cells ([1]; Dose 2 uM, listed as 9231) | APP Secretion by SH-SY-5Y Cells ([1]; Dose 6 uM, listed as 9231) | APP Secretion by SH-SY-5Y Cells ([1]; Dose 20 uM, listed as 9231) | APP Toxicity SH-SY-5Y Cells (MTS assay) ([2]; Dose 2 uM, listed as 9231) | APP Toxicity SH-SY-5Y Cells (MTS assay) ([2]; Dose 6 uM, listed as 9231) | APP Toxicity SH-SY-5Y Cells (MTS assay) ([2]; Dose 20 uM, listed as 9231)
1 | COc1ccc2c(c1)[C@@]1(C)CCN(Cc3ccccc3)C1N2Cc1ccccc1 (stereo partly drawn) [MES 9237] | 149.95 % vehicle control | 158.1 % vehicle control | 173.3 % vehicle control | 96.55 % vehicle control | 98.35 % vehicle control | 99.4 % vehicle control |  |  |  |  |  |  |  |  |  |  |  | 
2 | C[C@]12CCN(Cc3ccccc3)C1N(Cc1ccccc1)c1ccc(O)cc12 (stereo partly drawn) [MES 9238] | 48.57 % vehicle control | 39.23 % vehicle control | 23.57 % vehicle control | 41.8 % vehicle control | 40.47 % vehicle control | 31.63 % vehicle control | 117.6 % vehicle control | 107.7 % vehicle control | 109.7 % vehicle control | 101.8 % vehicle control | 103.8 % vehicle control | 106.4 % vehicle control |  |  |  |  |  | 
3 | COc1ccc2c(c1)[C@]1(C)CCN(C)C1N2Cc1ccccc1 (stereo partly drawn) [MES 9242] | 116.75 % vehicle control | 116.3 % vehicle control | 116.1 % vehicle control | 94.2 % vehicle control | 89.8 % vehicle control | 80.95 % vehicle control |  |  |  |  |  |  |  |  |  |  |  | 
4 | CC(Br)C(=O)N(Cc1ccccc1)c1ccc(O)cc1 (stereo not drawn) [MES 9306] | 110.75 % vehicle control | 114.55 % vehicle control | 124.8 % vehicle control | 102.3 % vehicle control | 101.45 % vehicle control | 106 % vehicle control |  |  |  |  |  |  |  |  |  |  |  | 
5 | COc1ccc2c(c1)[C@]1(C)CCOC1N2C (stereo partly drawn) [MES 9318] | 104.05 % vehicle control | 103.4 % vehicle control | 108.75 % vehicle control | 96.2 % vehicle control | 96.45 % vehicle control | 96.05 % vehicle control |  |  |  |  |  |  |  |  |  |  |  | 
6 | COc1ccc2c(c1)[C@]1(C)CCN(Cc3ccccc3)C1N2C (stereo partly drawn) [MES 9231] |  |  |  |  |  |  |  |  |  |  |  |  | 104.9 % vehicle control | 133.5 % vehicle control | 154.2 % vehicle control | 95.7 % vehicle control | 90.73 % vehicle control | 85.87 % vehicle control
